{"source": "patent US7138546B2", "about": "“Compounds and compositions for delivering active agents” (Emisphere Technologies, Inc., priority 2000, dated 2006)", "data": [{"smiles": "O=C(COc1ccccc1O)Nc1cc(Cl)ccc1O", "note": "[Compound 1, N-(5-Chloro-2-hydroxyphenyl)-2-(2-hydroxyphenoxy)acetamide]", "values": [{"measurement": "melting point", "result": "203 to 205", "unit": "°C"}]}, {"smiles": "CCOCCC(=O)Nc1cc(Cl)ccc1O", "note": "[Compound 2, N-(5-Choro-2-hydroxyphenyl)-3-ethoxypropanamide]", "values": [{"measurement": "melting point", "result": "154 to 156", "unit": "°C"}]}]}
